# Read-outs that look alike come from different tables or passages of the source.
# Assays:
# Type in all cases: binding, sheep
# [1] = tested on: IgG fraction of antiserum raised to Immunogen I
# Procedure: (§1) An aqueous solution of each immunogen was formulated with Freund's Complete Adjuvant (FCA) to form an emulsion consisting of 2 mg/ml*immunogen in 50% (v/v) FCA. Three sheep were immunised with this emulsion (1° immunisation), 0.25 ml being intramuscularly injected at each of four sites in the flank of each animal. Subsequent immunizations (boosts) contained 1 mg/ml*immunogen. All boosts were emulsified in 50% (v/v) Freund's Incomplete Adjuvant (FIA) and were administered in the same manner as the 1° immunisation, at monthly intervals. Blood sampling took place 7 to 14 days after each boost. *The general procedure for immunogen administration is outlined above, however, it was necessary to deviate from this protocol in some cases, due to reduced immunogen concentrations (Immunogens II, IV, VII and VIII) and/or amount available (Immunogen VIII). Any deviations from the protocol described are outlined in Table 5 below and highlighted in bold.
# (§2) The wells of an enhanced binding 96 well polystyrene microtiter plate were coated with IgG fraction of antiserum raised to Immunogen I or II, diluted in 10 mM Tris, pH8.5 (125 μl/well). The appropriate antibody coating dilution was determined using standard ELISA checkerboard techniques. The plate was incubated overnight at 4° C., washed 4 times over 10 minutes with Tris buffered saline containing Tween 20 (TBST) and tapped dry. Standard solutions (JWH-018 for Immunogens I and II) were applied at 0, 0.625, 1.25, 2.5, 5, 10, 20 and 40 ng/ml and 50 μl of each was added to the appropriate wells. 75 μl of conjugate (appropriate hapten-HRP) diluted in Tris buffer (pH 7.2) containing EDTA, D-mannitol, sucrose, thimerosal and BSA, was added to each of the wells. The appropriate dilution of conjugate was also determined using standard ELISA checkerboard techniques. The plate was incubated at 25° C. for 1 hour. Excess unbound conjugate was removed by washing 6 times over a 10 minute period with TBST. 125 μl of tetramethylbenzidine (TMB) substrate solution was added to each well of the plate that was then incubated for 20 minutes in the dark at room temperature. The reaction was terminated by addition of 125 μl 0.2M H2SO4 to each well. The absorbance was then measured at 450 nm using a microtiter plate reader. The data are inputted to a computer program called ‘KC Junior’. It is a 4 parameter fit curve and allow the calculation of concentrations between the standard runs. This program is used to calculate the IC50s by dividing the 0 ng/ml OD value by 2 and obtaining the concentration value from the curve for this OD.
# In a similar manner to that described above, the wells of a 96-well microtiter plate were coated with the IgG fraction of the antiserum raised to Immunogens I or II. Standard solutions (JWH-018 for Immunogen I and II) were applied at 0, 0.625, 1.25, 2.5, 5, 10, 20 and 40 ng/ml and conjugate was employed as detection reagent.
# (§3) The data set out in Tables 7-10 are generated using antibodies raised against the indicated Immunogens in a competitive binding assay with the indicated tracers, using the indicated standards
# (§4) In order to determine the specificity of the competitive ELISAs, standard solutions of a range of structurally similar synthetic cannabinoids and their metabolites were prepared in TBST.
# (§5) Using the calibration curves generated and employing a single level of cross reactants, these were used to determine the cross-reactivity of each immunoassay with these substances. These are the standards used for the IC50 and cross-reactivity data generation: […]
# [2] = tested on: IgG fraction of antiserum raised to Immunogen II; assay: Competitive ELISA, antibody RS1833B12 to Immunogen II, tracer ESC4555 (Example 36); settings: Antibody to Immunogen II; cross-reactants at 100 ng/ml; 1000 ng/ml; standard JWH-018
# Procedure: as §1
# as §2, with “The” for “The wells of an enhanced binding 96 well polystyrene microtiter plate were coated with IgG fraction of antiserum raised to Immunogen I or II, diluted in 10 mM Tris, pH8.5 (125 μl/well). The”, “Standard solutions (JWH-018 for Immunogens I and II) were applied at 0, 0.625, 1.25, 2.5, 5, 10, 20 and 40 ng/ml and 50 μl of each was added to the appropriate wells.” left out, “runs.” for “runs. This program is used to calculate the IC50s by dividing the 0 ng/ml OD value by 2 and obtaining the concentration value from the curve for this OD.”
# In a similar manner to that described above, the wells of a 96-well microtiter plate were coated with the IgG fraction of the antiserum raised to Immunogens I or II.
# as §3, §5
# [3] = tested on: IgG fraction of antiserum raised to Immunogen IV
# Procedure: as §1, §2
# (§6) In a similar manner to that described above, the wells of a 96-well microtiter plate were coated with the IgG fraction of the antiserum raised to Immunogens IV, VII or VIII. Standard solutions (JWH-018 for Immunogens IV and VIII, JWH-015 for Immunogen VII) were prepared in TBST at 0, 1.25, 2.5, 5, 10, 20, 40 and 80 ng/ml and conjugate was employed as detection reagent.
# as §3, §4, §5
# [4] = tested on: IgG fraction of antiserum raised to Immunogen VII
# Procedure: as §1, §2, §6, §3, §4, §5
# [5] = tested on: IgG fraction of antiserum raised to Immunogen VIII
# Procedure: as §1, §2, §6, §3, §4, §5
# [6] = Antibody to Immunogen I, cross-reactants at 100 ng/ml, 1000 ng/ml, standard JWH-018
# [7] = Antibody to Immunogen IV, cross-reactants at 100 ng/ml, 1000 ng/ml, standard JWH-018
# [8] = Antibody to Immunogen VII, cross-reactants at 100 ng/ml, 1000 ng/ml, standard JWH-015
# [9] = Antibody to Immunogen VIII, cross-reactants at 100 ng/ml, 1000 ng/ml, standard JWH-018
Compound,"% B/B0 [1, 6]",% B/B0 [2],"% B/B0 [3, 7]","% B/B0 [4, 8]","% B/B0 [5, 9]",% B/B0 [1],% B/B0 [3],% B/B0 [4],% B/B0 [5]
CC(O)CCCn1cc(C(=O)c2cccc3ccccc23)c2ccccc21 (racemic) [(±)-JWH 018 N-(4-hydroxypentyl) metabolite],4.23%,53.99%,52.29%,57.37%,21.94%,–,–,–,–
"CC(F)CCCn1cc(C(=O)c2cccc3ccccc23)c2ccccc21 (single isomer, unassigned) [AM-2201 N-(4-fluoropentyl) isomer]",3.45%,14.60%,5.72%,52.70%,15.00%,–,–,–,–
"CC(C)C(C)n1cc(C(=O)c2cccc3ccccc23)c2ccccc21 (single isomer, unassigned) [JWH 018 N-(1,2-dimethylpropyl) isomer]",6.60%,71.33%,87.11%,62.29%,67.71%,–,–,–,–
"CCCC(C)n1cc(C(=O)c2cccc3ccccc23)c2ccccc21 (single isomer, unassigned) [JWH-018 N-(1-methylbutyl) isomer]",12.42%,51.92%,73.49%,67.71%,63.22%,–,–,–,–
"CCC(C)Cn1cc(C(=O)c2cccc3ccccc23)c2ccccc21 (single isomer, unassigned) [JWH-018 N-(2-methylbutyl) isomer]",3.61%,28.60%,29.88%,58.84%,85.16%,–,–,–,–
"CCCCn1cc(C(=O)c2cccc3ccccc23)c2c(O)cccc21 [4-OH JWH-073, JWH-073 4-hydroxyindole metabolite]",39.50%,40.14%,28.69%,82.82%,26.23%,–,–,–,–
"CCCCn1cc(C(=O)c2cccc3ccccc23)c2cc(O)ccc21 [5-OH JWH-073, JWH-073 5-hydroxyindole metabolite]",7.34%,20.73%,84.06%,75.11%,90.70%,–,–,–,–
"CCCCn1cc(C(=O)c2cccc3ccccc23)c2ccc(O)cc21 [6-OH JWH-073, JWH-073 6-hydroxyindole metabolite]",5.93%,28.03%,74.89%,61.83%,93.52%,–,–,–,–
"CCCCCn1cc(C(=O)c2cccc3ccccc23)c2cccc(O)c21 [7-OH JWH-018, JWH-018 7-hydroxyindole metabolite]",6.72%,34.79%,93.31%,68.53%,94.46%,–,–,–,–
"CCCCn1cc(C(=O)c2cccc3ccccc23)c2cccc(O)c21 [7-OH JWH-073, JWH-073 7-hydroxyindole metabolite]",5.59%,46.05%,96.95%,61.78%,94.04%,–,–,–,–
CS(=O)(=O)O.Cc1c(C(=O)c2cccc3ccccc23)c2cccc3c2n1[C@H](CN1CCOCC1)CO3 [(+)WIN 55212-2],17.00%,83.87%,92.76%,24.08%,107.12%,–,–,–,–
O=C(c1cccc(I)c1)c1cn(CCCCCF)c2ccccc12 [AM-694 3-iodo isomer],31.37%,48.58%,37.20%,89.49%,12.71%,–,–,–,–
O=C(c1ccccc1I)c1cn(CCCCCF)c2ccccc12 [AM-694],12.17%,36.18%,11.30%,75.66%,11.92%,–,–,–,–
CN1CCCCC1Cn1cc(C(=O)c2cccc3ccccc23)c2ccccc21 (stereo not drawn) [AM-1220],4.45%,77.46%,86.93%,49.71%,106.65%,–,–,–,–
"COc1ccc(C(=O)c2c(C)n(CCN3CCOCC3)c3ccccc23)cc1 [WIN-48,098, Pravadoline]",90.05%,–,91.64%,92.41%,97.90%,–,–,–,–
"CS(=O)(=O)O.Cc1c(C(=O)c2cccc3ccccc23)c2cccc3c2n1[C@@H](CN1CCOCC1)CO3 [Win 55,212-3 mesylate]",34.00%,–,94.57%,32.31%,101.30%,–,–,–,–
"(+)-CP 55,940",103.25%,–,91.38%,97.15%,95.12%,–,–,–,–
(−)-11-nor-9-Carboxy-delta9-THC,–,–,–,–,–,100.47%,93.08%,98.72%,103.36%
"(−)-CP 55,940",98.27%,–,93.02%,101.15%,97.58%,–,–,–,–
